Earlier results in patent publication US11400063B2, “Early administration of low-dose colchicine after myocardial infarction” (INSTITUT DE CARDIOLOGIE DE MONTREAL, priority 2019, dated 2022).

Experiments:
stable coronary disease = settings: CANTOS; cited from earlier work
[1] = CIRT; cited from earlier work

Molecule	incidence of fatal infections (stable coronary disease)	lower risk of cardiovascular events than with placebo (stable coronary disease)	cardiovascular outcomes or plasma markers of inflammation [1]
canakinumab: injectable monoclonal antibody inhibiting interleukin-1β	slightly higher incidence	15%	
CN(Cc1cnc2nc(N)nc(N)c2n1)c1ccc(C(=O)N[C@@H](CCC(=O)O)C(=O)O)cc1 [methotrexate]			did not affect
